Results published in PubChem BioAssay AID2744 (NMMLSC, 2010).
Active and inactive are the calls of the source.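 How the source made its calls: active means fitted half-maximal concentration for changing reporter fluorescence at or below a set limit; inactive means the rest.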

Target: Citrate synthase, peroxisomal (Saccharomyces cerevisiae (strain ATCC 204508 / S288c)) (UniProt P08679)
Experiment: CIT2-GFP expression modulators in yeast, dose response, flow cytometry, MLPCN hits (AID 2744)
Conditions: S. cerevisiae CIT2-GFP strain, 3 h; for EC50: flow cytometry fluorescence; for GFP fluorescence, higher = induction: at 33 µM (top of the series)

Citrate synthase, peroxisomal (Saccharomyces cerevisiae (strain ATCC 204508 / S288c)), sequence (P08679 whole entry, looked up): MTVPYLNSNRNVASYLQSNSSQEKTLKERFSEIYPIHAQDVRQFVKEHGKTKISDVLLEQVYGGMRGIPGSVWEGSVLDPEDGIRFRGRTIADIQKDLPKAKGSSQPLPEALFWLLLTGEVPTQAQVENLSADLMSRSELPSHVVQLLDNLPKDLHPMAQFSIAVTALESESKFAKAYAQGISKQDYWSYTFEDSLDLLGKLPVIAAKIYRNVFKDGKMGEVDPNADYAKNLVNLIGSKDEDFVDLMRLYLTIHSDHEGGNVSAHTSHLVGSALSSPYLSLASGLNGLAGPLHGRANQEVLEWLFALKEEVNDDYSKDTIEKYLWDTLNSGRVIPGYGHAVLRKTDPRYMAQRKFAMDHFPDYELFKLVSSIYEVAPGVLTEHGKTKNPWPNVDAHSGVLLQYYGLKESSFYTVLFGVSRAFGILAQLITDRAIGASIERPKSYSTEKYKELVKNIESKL

Compound | EC50 | GFP fluorescence, higher = induction
CCCCC(=O)NNC(=S)NC(=O)c1ccc(C)cc1 | 3390 nM | 
CC(c1ccccc1)N1C(=O)/C(=C/c2ccncc2)SC1=S (stereo not given) |  | inactive
O=C(Nc1nc(-c2ccccn2)cs1)C1COc2ccccc2O1 (stereo not given) |  | inactive
Cc1ccsc1/C=C1\C(=O)NC(=S)N(C)C1=O |  | inactive
O=C1C=C(Nc2ccc(Cl)cc2)C(=O)N1c1ccc(Cl)cc1 |  | inactive
O=C1Nc2ccc(Br)cc2/C1=C/C(=O)c1ccc2c(c1)OCO2 |  | inactive
Cc1cc(=O)n2c3c(sc2n1)C(=O)N(Cc1ccccc1)C3=O |  | inactive
O=C(Nc1cccc(-c2csc(Nc3ccccc3)n2)c1)c1ccccc1 |  | inactive
CCCN1CCc2c(sc(NC(=S)NC(=O)c3ccccc3)c2C#N)C1 |  | inactive
O=[N+]([O-])c1cnc(Sc2ccncn2)s1 |  | inactive
Cc1ccc(/C=c2\sc3nc(-c4cccs4)nn3c2=O)o1 |  | inactive
Cc1sc(/C=C2\C(=O)ON=C2c2ccccc2)cc1Br |  | inactive
Oc1ccc(N=Nc2ccccc2)o1 |  | inactive
O=c1oc2ccccc2c(O)c1[C@H]1c2ccc(O)cc2Oc2c1c(=O)oc1ccccc21 |  | inactive
Oc1c(CN2CCCCC2)cc(Br)c2cccnc12 |  | inactive
CC(Oc1cccc(Cl)c1)C(=O)Nc1nc(-c2ccccn2)cs1 (stereo not given) |  | inactive
O=C(OCC(=O)N1CCN(C(=O)c2ccco2)CC1)c1cc(-c2cccc(Br)c2)nc2ccccc12 |  | inactive
O=C1ON=C(c2ccc(Cl)cc2)/C1=C/c1ccc(O)cc1 |  | inactive
N#C/C(=C\c1cc(Br)ccc1F)C(=O)NC1CC1 |  | inactive
O=S(=O)(c1ccccc1)c1ccc(C(F)(F)F)cn1 |  | inactive
O=c1oc(/C=C/c2ccc([N+](=O)[O-])s2)nc2ccccc12 |  | inactive
CCCCc1ccc(/C=C2/C(=O)ON=C2c2ccccc2)s1 |  | inactive
CC(Oc1ccc(Br)cc1)C(=O)Nc1nc(-c2ccccn2)cs1 (stereo not given) |  | inactive
CC(=O)Oc1cccc(N2C(=O)c3cccc4c([N+](=O)[O-])ccc(c34)C2=O)c1 |  | inactive

Compound | EC50 | GFP fluorescence, higher = induction
COc1ccccc1C(=O)NNC(=S)NC(=O)c1cccs1 |  | inactive
COc1ccccc1N=Nc1ccc(O)c2ncccc12 |  | inactive
CC[C@@]1(c2ccccc2OC)ON(c2ccccc2C(F)(F)F)C1=O |  | inactive
O=C(/C=C/c1ccc(Br)cc1)NC(=S)NNC(=O)c1ccco1 |  | inactive
O=C1C=CC(=O)N1c1ccc(OC(F)F)cc1 |  | inactive
O=C1c2cccc3c([N+](=O)[O-])ccc(c23)C(=O)N1c1ccccn1 |  | inactive
O=C(O)c1ccc2c(c1)C(=O)/C(=C/c1ccccc1)C2=O |  | inactive
O=C1c2ccccc2C(=O)N1OS(=O)(=O)c1ccc(F)cc1 |  | inactive
Cc1ccccc1[C@@]1(C)ON(c2ccccc2C(F)(F)F)C1=O |  | inactive
Cc1[nH]c(-c2ccccn2)nc(=S)c1Cl |  | inactive
C/C(=N/NC(=O)c1ccc(C(C)(C)C)cc1)c1ccccn1 |  | inactive
CC1=C(C)/C(=N\OS(=O)(=O)c2ccccc2)C=CC1=O |  | inactive
CCCCC(=O)NC(=S)NNC(=O)CCc1ccccc1 |  | inactive
COC(=O)CCS(=O)(=O)c1nc(-c2ccccc2)cc(C(F)(F)F)n1 |  | inactive
CC(C)[C@]1(c2ccc(Cl)cc2)ON(c2ccccc2C(F)(F)F)C1=O |  | inactive
C#CCOCCOCCOCCNc1nc(N2CCN(C(=O)CCCCCCCCCCNC(=O)[C@@H](CCC(=O)O)n3cc(CCCCCN)nn3)CC2)nc(N2CCN(C(=O)CCCCCCCCCCNC(=O)[C@H](CCCCN)n3cc(C[C@@H](C)CC)nn3)CC2)n1 |  | inactive
O=C1N(c2ccccc2C(F)(F)F)OC1(Cc1ccccc1)c1ccccc1 (stereo not given) |  | inactive
O=C(CS(=O)c1ccccc1[N+](=O)[O-])Oc1ccc(Br)cc1 (stereo not given) |  | inactive
O=C1C(Cl)=C(Nc2ccccc2O)C(=O)N1CCc1ccccc1 |  | inactive
CCN(CC(=O)Nc1cc(S(=O)(=O)N2CCOCC2)ccc1Cl)Cc1ccccc1 |  | inactive
O=C(NNC(=S)NC(=O)C12CC3CC(CC(C3)C1)C2)c1ccncc1 |  | inactive
O=C(/C=C/c1cccc(Cl)c1)c1nc2ccccc2[nH]1 |  | inactive
CC[C@]1(c2ccccc2OC)ON(c2ccccc2C(F)(F)F)C1=O |  | inactive
O=C(/C=C/c1ccc(F)cc1)NC(=S)NNC(=O)c1cnccn1 |  | inactive

Compound | EC50 | GFP fluorescence, higher = induction
Cc1cccc(C)c1NC(=O)C(Cl)C(=O)c1ccccc1 (stereo not given) |  | inactive
O=C(CCS(=O)(=O)c1ccccc1)Nc1nc(-c2ccccn2)cs1 |  | inactive
COc1cccc(/C=C2\C(=O)N(c3cccc(C)c3)C(=O)c3ccccc32)c1 |  | inactive
Cc1c(C)c2ccc(Oc3ccc([N+](=O)[O-])cc3C(F)(F)F)c(C)c2oc1=O |  | inactive
O=C(O)c1cc[c]([Hg][Cl])cc1 |  | inactive
Cc1ccc2[nH]cc(/C=C/c3cc[n+](C)cc3)c2c1 |  | inactive
COc1ccc(C(=O)/C=C2/C(=O)Nc3ccccc32)c(OC)c1 |  | inactive
CCc1sc(C(=O)Nc2nc(-c3ccccn3)cs2)cc1C |  | inactive
O=C1C(=O)c2ccccc2-c2ccccc21 |  | inactive
Cc1cc(C)c2c(c1)/C(=C/C(=O)c1ccc(Br)s1)C(=O)N2 |  | inactive
O=C(Nc1nnc(-c2ccc(Cl)cc2)o1)c1ccccc1Br |  | inactive
COc1ccc(C2(C)ON(c3ccccc3C(F)(F)F)C2=O)cc1 (stereo not given) |  | inactive
Cc1cccnc1Nc1nc(-c2ccccn2)cs1 |  | inactive
COc1ccc(N2CCN(C(=O)c3ccccc3)CC2)c([N+](=O)[O-])c1 |  | inactive
O=C(O)c1ccccc1SC1CC(=O)N(c2ccc3c(c2)OCO3)C1=O (stereo not given) |  | inactive
N=C1S/C(=C\c2ccco2)C(=O)N1c1nccs1 |  | inactive
O=C(c1ccc(Cl)cc1)N1CCN(c2cccc3[nH]ccc23)CC1 |  | inactive
CCN1/C(=C/C(C)=C/c2sc3ccccc3[n+]2CC)Sc2ccccc21 |  | inactive
O=C(OCn1ncc(Br)c(Br)c1=O)c1ccc(F)cc1 |  | inactive
Cc1ccc(S(=O)(=O)Cc2cc(F)c([N+](=O)[O-])cc2[N+](=O)[O-])cc1 |  | inactive
O=C1c2cccc3c([N+](=O)[O-])ccc(c23)C(=O)N1CCc1ccccn1 |  | inactive
O=C(Nc1nc(-c2ccccn2)cs1)c1cc2ccccc2o1 |  | inactive
N/C(Cc1ccc(Cl)cc1Cl)=N\OC(=O)c1cccs1 | 1480 nM | 
O=C1C=CC(=O)N1c1ccc(Sc2ccc([N+](=O)[O-])cc2)cc1 |  | inactive

Compound | EC50 | GFP fluorescence, higher = induction
COc1ccc(Cl)cc1C(Nc1cccnc1)c1ccc2cccnc2c1O (stereo not given) |  | inactive
Cc1ccc(C2=NOC(=O)/C2=C\c2ccc(C)o2)cc1 |  | inactive
NC(=O)COc1ccc(C(=O)/C=C2/C(=O)Nc3ccccc32)cc1 |  | inactive
Cc1ccc(-c2nn(C(C)(C)C)c3ncnc(N)c23)cc1 |  | inactive
O=C(NOC(=O)c1ccccc1)c1ccccc1 |  | inactive
COc1cc(NC(=O)c2ccc(C)cc2)ccc1NC(=O)c1cc2ccccc2o1 |  | inactive
CC(=O)Oc1oc(-c2ccccc2)nc1C=Nc1ccc(N(C)C)cc1 |  | inactive
O=C(Nc1ccccc1)c1nnsc1S(=O)(=O)c1ccc(Cl)cc1 |  | inactive
Fc1cccc(Nc2ncnc3c2cnn3-c2ccccc2)c1 |  | inactive
Cc1cc(Br)c2c(c1)/C(=C/C(=O)c1cccs1)C(=O)N2 |  | inactive
O=C(Nc1nnc(-c2ccc(F)cc2)o1)c1cccc([N+](=O)[O-])c1 |  | inactive
CCN1C(=O)/C(=C\C(=O)c2cccs2)c2cc(Br)ccc21 |  | inactive
Cc1cccc(OCCN2CSC(=S)N(C)C2)c1 |  | inactive
Cc1ccc(C(=O)/C=C/C(=O)c2ccc(C)cc2)cc1 |  | inactive
CC(C)C[C@]1(c2ccccc2)ON(c2ccccc2C(F)(F)F)C1=O |  | inactive
Cc1ccc(S(=O)(=O)N2CC(C(=O)O)=CC[C@H]2c2ccc(Cl)cc2)cc1 |  | inactive
O=C1ON=C(c2ccccc2)/C1=C\c1ccco1 |  | inactive
COc1cc(/C=C2\C(=O)ON=C2c2ccccc2)cc(OC)c1OC |  | inactive
CCCCS(=O)(=O)/C=C\C=C/S(=O)(=O)CCCC |  | inactive
O=[N+]([O-])c1cc(Cl)cc(/C=N\Nc2ccccn2)c1O |  | inactive
CC(C)(C)C(=O)NC(=S)NNC(=O)c1sc2ccccc2c1Cl |  | inactive
COc1ccc(C(=O)/C=C2/C(=O)Nc3ccccc32)cc1 |  | inactive
CC(Oc1ccc2ccccc2c1)C(=O)NNC(=S)NC(=O)c1ccco1 (stereo not given) |  | inactive
